These results are taken from PubChem BioAssay AID330 (DTP/NCI, 2004).

The structures appear in SMILES notation. “And” between values parts separate entries of the source, which are not always exact repeats. Identical values can stand only once. Toxic doses and inconclusive results are not listed.

For the assay, the system named is P388 leukemia ip, CD2F1 mice, survival T/C. Kind of assay: NCI In Vivo Anticancer Drug Screen. Data for tumor model P388 Leukemia (intraperitoneal) in CD2F1 (CDF1) mice. Particulars: endpoint: median survival time, higher = longer survival. The method in brief: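 Mice carrying the transplanted tumor received test compound or vehicle. Survival was recorded in each group, and the value is the treated-group measurement divided by that of the vehicle-treated control group.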

The mark [1] stands for this setting: dose: 50.0 mg/kg/injection, schedule: Q04DX003 (ip), vehicle: Klucel (hydroxypropylcellulose) (HPC).
Setting [2] is: dose: 100.0 mg/kg/injection, schedule: Q04DX003 (ip), vehicle: Klucel (hydroxypropylcellulose) (HPC).
The mark [3] stands for this setting: dose: 200.0 mg/kg/injection, schedule: Q04DX003 (ip), vehicle: Klucel (hydroxypropylcellulose) (HPC).
[4] abbreviates: dose: 50.0 mg/kg/injection, schedule: Q01DX005 (ip), vehicle: saline with Tween-80.
Setting [5] is: dose: 100.0 mg/kg/injection, schedule: Q01DX005 (ip), vehicle: saline with Tween-80.
Where [6] appears, read: dose: 200.0 mg/kg/injection, schedule: Q01DX005 (ip), vehicle: saline with Tween-80.
Where [7] appears, read: dose: 60.0 mg/kg/injection, schedule: Q01DX005 (ip), vehicle: saline with Tween-80.
The mark [8] stands for this setting: dose: 120.0 mg/kg/injection, schedule: Q01DX005 (ip), vehicle: saline with Tween-80.
Setting [9] is: dose: 240.0 mg/kg/injection, schedule: Q01DX005 (ip), vehicle: saline with Tween-80.
Setting [10] is: dose: 60.0 mg/kg/injection, schedule: Q01DX005 (ip), vehicle: Klucel (hydroxypropylcellulose) (HPC).
Setting [11] is: dose: 120.0 mg/kg/injection, schedule: Q01DX005 (ip), vehicle: Klucel (hydroxypropylcellulose) (HPC).
Where [12] appears, read: dose: 240.0 mg/kg/injection, schedule: Q01DX005 (ip), vehicle: Klucel (hydroxypropylcellulose) (HPC).
Setting [13] is: dose: 100.0 mg/kg/injection, schedule: Q01DX001 (ip), vehicle: saline with Tween-80.
The mark [14] stands for this setting: dose: 200.0 mg/kg/injection, schedule: Q01DX001 (ip), vehicle: saline with Tween-80.
The mark [15] stands for this setting: dose: 50.0 mg/kg/injection, schedule: Q01DX009 (ip), vehicle: saline.
[16] abbreviates: dose: 100.0 mg/kg/injection, schedule: Q01DX009 (ip), vehicle: saline.
The mark [17] stands for this setting: dose: 200.0 mg/kg/injection, schedule: Q01DX009 (ip), vehicle: saline.

Take `FC(F)(F)c1ccccc1NC(=S)Nc1ccc(I)cc1`: the T/C is 92 % of control (dose: 50.0 mg/kg/injection, schedule: Q01DX009 (ip), vehicle: gum acacia); 92 % of control (dose: 100.0 mg/kg/injection, schedule: Q01DX009 (ip), vehicle: gum acacia); 89 % of control (dose: 200.0 mg/kg/injection, schedule: Q01DX009 (ip), vehicle: gum acacia).
Regarding `Cc1cc(=S)c2cc3c(cc2[nH]1)OCO3`, the T/C runs as follows: (dose: 50.0 mg/kg/injection, schedule: Q01DX005 (ip), vehicle: Klucel (hydroxypropylcellulose) (HPC)) 107 % of control; (dose: 100.0 mg/kg/injection, schedule: Q01DX005 (ip), vehicle: Klucel (hydroxypropylcellulose) (HPC)) 101 % of control; (dose: 200.0 mg/kg/injection, schedule: Q01DX005 (ip), vehicle: Klucel (hydroxypropylcellulose) (HPC)) 103 % of control.
`O=S(=O)(ON=C1C=CC(=NOS(=O)(=O)c2ccccc2)C=C1)c1ccccc1`: the T/C reads like this: (dose: 25.0 mg/kg/injection, schedule: Q04DX003 (ip), vehicle: Klucel (hydroxypropylcellulose) (HPC)) 107 % of control and 94 % of control; under setting [1], 103 % of control and 87 % of control and 94 % of control; under setting [2], 94 % of control; under setting [3], 99 % of control and 100 % of control; (dose: 400.0 mg/kg/injection, schedule: Q04DX003 (ip), vehicle: Klucel (hydroxypropylcellulose) (HPC)) 116 % of control.
Regarding `CCOC(=O)NP1(=O)NCc2ccccc2CN1`, the T/C by setting is: under setting [4], 103 % of control; under setting [5], 99 % of control; under setting [6], 90 % of control.
Regarding `CCC(=O)Nc1ncc([N+](=O)[O-])s1`, the T/C reads like this: (dose: 25.0 mg/kg/injection, schedule: Q01DX009 (ip), vehicle: saline with Tween-80) 94 % of control; (dose: 50.0 mg/kg/injection, schedule: Q01DX009 (ip), vehicle: saline with Tween-80) 86 % of control; (dose: 200.0 mg/kg/injection, schedule: Q01DX009 (ip), vehicle: saline with Tween-80) 86 % of control.
For the molecule `Fc1cccc(Cl)c1CSc1n[nH]c(C(F)(F)F)n1`, the T/C was 102 % of control under setting [7], 100 % of control under setting [8] and 111 % of control under setting [9].
In the case of `CCCCOC(OCCCC)C(C)N` (stereo not drawn), the T/C by setting is: (dose: 12.5 mg/kg/injection, schedule: Q01DX005 (ip), vehicle: saline with Tween-80) 108 % of control; (dose: 25.0 mg/kg/injection, schedule: Q01DX005 (ip), vehicle: saline with Tween-80) 106 % of control; under setting [4], 103 % of control and 107 % of control.
Consider `CCOC(=O)C(C)/C(C)=N\NC(N)=S` (stereo not drawn), for which the T/C is, setting by setting: under setting [10], 100 % of control; under setting [11], 100 % of control; under setting [12], 100 % of control.
On to `[N-]=[N+]=Nc1ccc(SN2C(=O)c3ccccc3C2=O)cc1`, for which the T/C under setting [7] is 112 % of control, the T/C under setting [8] was 113 % of control and the T/C under setting [9] was 113 % of control.
`Nc1cccc2cccc([N+](=O)[O-])c12`: the T/C (dose: 25.0 mg/kg/injection, schedule: Q01DX001 (ip), vehicle: saline with Tween-80) was 97 % of control; the T/C (dose: 50.0 mg/kg/injection, schedule: Q01DX001 (ip), vehicle: saline with Tween-80) was 110 % of control; the T/C under setting [13] is 99 % of control; the T/C under setting [14] was 98 % of control.
With `CC(=O)/C(=C\c1ccc([N+](=O)[O-])cc1)C(=O)CCN(C)C`, the T/C is 118 % of control (dose: 30.0 mg/kg/injection, schedule: Q01DX005 (ip), vehicle: saline); 121 % of control and 123 % of control (dose: 60.0 mg/kg/injection, schedule: Q01DX005 (ip), vehicle: saline).
For `NC(c1ccccc1)S(=O)(=O)O` (stereo not drawn), the T/C (dose: 25.0 mg/kg/injection, schedule: Q01DX009 (ip), vehicle: saline) was 121 % of control; the T/C under setting [15] was 121 % of control; the T/C (dose: 66.7 mg/kg/injection, schedule: Q01DX009 (ip), vehicle: saline with Tween-80) is 92 % of control; the T/C (dose: 100.0 mg/kg/injection, schedule: Q01DX001 (ip), vehicle: saline) was 100 % of control; the T/C (dose: 100.0 mg/kg/injection, schedule: Q01DX009 (ip), vehicle: saline with Tween-80) is 88 % of control; the T/C under setting [16] was 122 % of control. The T/C reads like this: (dose: 150.0 mg/kg/injection, schedule: Q01DX009 (ip), vehicle: saline with Tween-80) 91 % of control; (dose: 200.0 mg/kg/injection, schedule: Q01DX001 (ip), vehicle: saline) 100 % of control; under setting [17], 121 % of control; (dose: 400.0 mg/kg/injection, schedule: Q01DX001 (ip), vehicle: saline) 100 % of control.
For `O=C(O)c1c[nH]c2cc(OCc3ccc(Br)cc3)ccc2c1=O`, the T/C under setting [15] is 96 % of control, the T/C under setting [16] is 89 % of control and the T/C under setting [17] was 86 % of control.
Take `COc1cccc2c1C(=O)c1c(O)c3c(c(O)c1C2=O)CC(O)(C(=O)CO)CC3OC1CC(N)C(I)C(C)O1` (stereo not drawn): the T/C runs as follows: (dose: 5.0 mg/kg/injection, schedule: Q01DX001 (ip), vehicle: saline) 165 % of control and 170 % of control; (dose: 7.5 mg/kg/injection, schedule: Q01DX001 (ip), vehicle: saline) 167 % of control and 191 % of control; (dose: 11.2 mg/kg/injection, schedule: Q01DX001 (ip), vehicle: saline) 208 % of control and 212 % of control; (dose: 16.8 mg/kg/injection, schedule: Q01DX001 (ip), vehicle: saline) 220 % of control; (dose: 25.2 mg/kg/injection, schedule: Q01DX001 (ip), vehicle: saline) 234 % of control.
As for `CCOc1ccc(-n2c(=O)c(N=Nc3ccccc3C)c(O)n(-c3ccc(Br)cc3)c2=S)cc1`, the T/C was 98 % of control under setting [13]; 92 % of control under setting [14]; 105 % of control (dose: 400.0 mg/kg/injection, schedule: Q01DX001 (ip), vehicle: saline with Tween-80).
For `CCn1c2ccc([N+](=O)[O-])cc2c2c([N+](=O)[O-])c(NC=O)ccc21`, the T/C reads like this: under setting [4], 90 % of control; under setting [5], 95 % of control; under setting [6], 86 % of control.
For `Cc1cc(NCCc2ccccc2)cc(=O)n1CCc1ccccc1`, the T/C runs as follows: under setting [10], 97 % of control; under setting [11], 100 % of control; under setting [12], 94 % of control.
Turning to `CCc1cccc(CC)c1NC(=O)c1ccc(C)cc1`, the T/C under setting [7] is 91 % of control and the T/C under setting [8] was 86 % of control.
In the case of `CCCCCCCCCCCCCC(CCCCCCCC)CCCCCCCC`, the T/C by setting is: (dose: 50.0 mg/kg/injection, schedule: Q01DX001 (ip), vehicle: saline sonified) 100 % of control; (dose: 100.0 mg/kg/injection, schedule: Q01DX001 (ip), vehicle: saline sonified) 113 % of control; (dose: 200.0 mg/kg/injection, schedule: Q01DX001 (ip), vehicle: saline sonified) 100 % of control.
In the case of `CCC1(O)CC2CN(CCc3c([nH]c4ccccc34)C(C(=O)OC)(c3cc4c(cc3OC)N(C=O)C3C(O)(C(=O)OC)CC5(CC)C=CCN6CCC43C65)C2)C1` (stereo not drawn), the T/C (dose: 1.0 mg/kg/injection, schedule: Q01DX001 (ip), vehicle: saline) was 155 % of control and 160 % of control; the T/C (dose: 2.0 mg/kg/injection, schedule: Q01DX001 (ip), vehicle: saline) was 158 % of control and 160 % of control; the T/C (dose: 4.0 mg/kg/injection, schedule: Q01DX001 (ip), vehicle: saline) was 180 % of control and 185 % of control; the T/C (dose: 8.0 mg/kg/injection, schedule: Q01DX001 (ip), vehicle: saline) was 205 % of control and 220 % of control; the T/C (dose: 16.0 mg/kg/injection, schedule: Q01DX001 (ip), vehicle: saline) was 255 % of control.
In the case of `CCOC(=O)CCC[n+]1cccc(C#N)c1`, the T/C is 101 % of control (dose: 31.25 mg/kg/injection, schedule: Q01DX005 (ip), vehicle: Klucel (hydroxypropylcellulose) (HPC)); 103 % of control (dose: 62.5 mg/kg/injection, schedule: Q01DX005 (ip), vehicle: Klucel (hydroxypropylcellulose) (HPC)); 96 % of control (dose: 125.0 mg/kg/injection, schedule: Q01DX005 (ip), vehicle: Klucel (hydroxypropylcellulose) (HPC)).
Turning to `C=C1C(=O)OC2C(O)CCCC12` (stereo not drawn), the T/C by setting is: under setting [1], 105 % of control and 110 % of control; under setting [2], 98 % of control and 103 % of control; under setting [3], 110 % of control.
